Results reported in patent US7863315B2, “2-indolinone derivatives as selective histone deacetylase inhibitors” (Shenzhen Chipscreen Biosciences, Ltd., priority 2008, dated 2011).

Key:
[1] = system: total HDAC enzyme (HeLa extract); assay: In vitro inhibition of total HDAC enzyme activity (HDAC Fluorimetric Assay/Drug Discovery Kit, BIOMOL); type: biochemical, human
Method: Measurement of in vitro inhibition of total HDAC enzyme activity:
The in vitro inhibition of total HDAC enzyme was determined by HDAC Fluorimetric Assay/Drug Discovery Kit (BIOMOL) according to manufacture's instruction. • 1. Add Assay buffer, diluted trichostatin A or test inhibitor to appropriate wells of the microtiter plate. Following table lists examples of various assay types and the additions required for each test.
• 2. Add diluted HeLa extract or other HDAC sample to all wells except those that are to be “No Enzyme Controls” (Blank). • 3. Allow diluted Fluor de LyS™ Substrate and the samples in the microtiter plate to equilibrate to assay temperature (25° C.). • 4. Initiate HDAC reactions by adding diluted substrate (25 μl) to each well and mixing thoroughly. • 5. Allow HDAC reactions to proceed for desired length of time and then stop them by addition of Fluor de Lys™ Developer (50 μl). Incubate plate at room temperature (25° C.) for 10-15 min. • 6. Read samples in a microtiter-plate reading fluorimeter capable of excitation at a wavelength in the range 350-380 nm and detection of emitted light in the range 440-460 nm.

[2] = system: HDAC class I (p21 reporter gene); assay: HDAC subtype reporter gene assay, p21-promoter luciferase in HeLa cells; type: cell-based; details: Homo sapiens, M-HeLa, read-out: % of SAHA Response for HDAC class I at 10 μM (p21 reporter gene), 24 hours
Method: (§1) Measurement of inhibition of HDAC subtypes activity in cells by reporter gene assay: HDAC subtype selectivity inhibition assay of tested compounds was carried out by several reporter gene assays experiments. Briefly, HeLa cells were seeded in 96-well plates the day before transfection to give a confluence of 50-80%. Cells were transfected with one of reporter gene plasmids containing a promoter sequences or response elements upstream of a luciferase gene construct using FuGene6 transfection reagent according to the manufacturer's instructions (Roche). The promoters or response elements including p21-promoter, gdf11-promoter, MEF-binding element (MEF2), Nur77-promoter were fused upstream to the luciferase gene reporter construct. For normalizing the transfection efficiency, a GFP expression plasmid was cotransfected. Cells were allowed to express protein for 24 hours followed by addition of individual compounds or the vehicle (DMSO). 24 hours later, the cells were harvested and the luciferase assays were performed using the luciferase assay kit according to the manufacturer's instructions (Promega). To normalize the data from the luciferase assays, GFP activity from transfected cells was measured in a microtiter-plate reading fluorimeter capable of excitation at a wavelength at 485 nm and detection of emitted light at 527 nm.

[3] = system: HDAC3 (gdf11 reporter gene); assay: HDAC subtype reporter gene assay, gdf11-promoter luciferase in HeLa cells; type: cell-based; details: Homo sapiens, M-HeLa, read-out: % of SAHA Response for HDAC3 at 10 μM (gdf11 reporter gene), 24 hours
Method: as §1

[4] = system: HDAC4/5 (MEF2 reporter gene); assay: HDAC subtype reporter gene assay, MEF-binding element (MEF2) luciferase in HeLa cells; type: cell-based; details: Homo sapiens, M-HeLa, read-out: % of SAHA Response for HDAC4/5 at 10 μM (MEF2 reporter gene), 24 hours
Method: as §1

[5] = system: HDAC7 (Nur77 reporter gene); assay: HDAC subtype reporter gene assay, Nur77-promoter luciferase in HeLa cells; type: cell-based; details: Homo sapiens, M-HeLa, read-out: % of SAHA Response for HDAC7 at 10 μM (Nur77 reporter gene), 24 hours
Method: as §1

lysine acetylation = assay: ELISA assay of acetylation of lysine in HeLa cells; type: cell-based; details: Homo sapiens, M-HeLa, 24 hours
Description: Measurement of acetylation activity in cells on substrates:
ELISA Assay of Acetylation of Lysine
This assay is used to measure in vivo inhibition of HDAC6 in a cytoblot assay.
Materials and Reagent: • 1. 24-well tissue culture • 2. DMEM Medium containing 10% FBS • 3. 96-well white plate • 4. HeLa cell line • 5. M-PER Mammalian Protein Extraction Reagent (Pierce) • 6. Bradford assay reagent • 7. Acetylated-lysine polyclonal Antibody (Cell Signaling) • 8. HRP-labeled anti-rabbit IgG (Upstate) • 9. Coating Buffer: 15 mM Na2CO3, 35 mM NaHCO3 (pH 9.6) • 10. 10×PBS: 0.58M Na2HPO4, 0.17M NaH2PO4, 0.68M NaCl (pH 7.4) • 11. Wash Buffer:1×PBS containing 0.05% Tween-20 (PBST) • 12. Blocking Buffer:10 mg/ml bocine serum albumin (BSA) in PBS • 13. Antibody Dilution Buffer: 5 mg/ml BSA in PBST • 14. Enhanced chemiluminescence (ECL) (Amersham)
Procedure for performing the assay in 96-well plate: • 1. HeLa cells were seeded at a density of 60000 cells/500 μl/well in 24-well plate and incubated at 37° C. for 24 hours. • 2. Compounds were added and incubated for 24 hours at 37° C. • 3. Culture medium was removed, then washes the cells twice with ice-cold PBS. • 4. Add 100 μl/well of Protein Extraction Reagent and gently shake the mixture for 5 minutes. • 5. Collect the lysate to a 96-well plate respectively. Determine the concentration of protein by Bradford assay. • 6. Coat the wells of a 96-well white plate with 100 μl/well of 2.5 μg whole cell protein in Coating Buffer by incubating overnight at 4° C. • 7. Discard the uncoated proteins and wash the coated wells three times with 200 μl/well of PBST. • 8. Block coated wells by incubating the plate with 200 μl/well of Blocking Buffer for 1 hour at 37° C. • 9. Wells were aspirated and washed three times with 200 μl/well of PBST. • 10. After aspirating, 50 μl/well of Antibody Dilution Buffer containing acetylated-lysine polyclonal antibody (1:1000) were added to each well and incubated for 2 hour at 37° C. • 11. Wells were aspirated and washed three times with 200 μl/well of PBST. • 12. 50 μl/well of Antibody Dilution Buffer containing HRP-labeled anti-rabbit IgG (1:2000) were added to each well and incubated for 2 hour at 37° C. • 13. Wells were aspirated and washed three times with 200 μl/well of PBST. • 14. Wells were washed three times with 200 μl/well of purified water. • 15. Add 50 μl/well of ECL mixture, then read the plates on the plate reader.

| % of Inhibition on Total HDAC Enzyme at 30 μM [1] | Structure (SMILES) | Emax at 10 µM [2] | Emax at 10 µM [3] | Emax at 10 µM [4] | Emax at 10 µM [5] | fold induction at 10 µM (lysine acetylation) |
| --- | --- | --- | --- | --- | --- | --- |
| 30% | Nc1cc(F)ccc1NC(=O)CCCCCNC(=O)c1cccc(/C=C2\C(=O)Nc3ccc(F)cc32)c1 [Example 45, 6-(3-((5-fluoro-2-oxoindolin-3-ylidene)methyl)benzamido)-N-(2-amino-4-fluorophenyl)hexanamide] | 19% | 12% | 44% | 16% | 1.17 |
| 22% | Nc1ccccc1NC(=O)CCCCNC(=O)c1cccc(/C=C2\C(=O)Nc3ccc(F)cc32)c1 [Example 49, 5-(3-((5-fluoro-2-oxoindolin-3-ylidene)methyl)benzamido)-N-(2-aminophenyl)pentanamide] | 18% | 11% | 32% | 8% | 1.02 |
| −3% | Nc1cc(F)ccc1NC(=O)CCCCNC(=O)c1cccc(/C=C2\C(=O)Nc3ccc(F)cc32)c1 [Example 50, 5-(3-((5-fluoro-2-oxoindolin-3-ylidene)methyl)benzamido)-N-(2-amino-4-fluorophenyl)pentanamide] | 7% | 4% | 43% | 12% | 1.08 |
| 93% | O=C(CCCCCCCNC(=O)c1cccc(/C=C2\C(=O)Nc3ccc(F)cc32)c1)NO [Example 56, 8-(3-((5-fluoro-2-oxoindolin-3-ylidene)methyl)benzamido)-N-hydroxyoctanamide] | 65% | 56% | 62% | 27% | 1.7 |

Second part, the compound before the results:

| Structure (SMILES) | % of Inhibition on Total HDAC Enzyme at 30 μM [1] | Emax at 10 µM [2] | Emax at 10 µM [3] | Emax at 10 µM [4] | Emax at 10 µM [5] | fold induction at 10 µM (lysine acetylation) |
| --- | --- | --- | --- | --- | --- | --- |
| Nc1ccccc1NC(=O)CCCCCNC(=O)c1ccc(/C=C2\C(=O)Nc3ccc(F)cc32)cc1 [Example 39, 6-(4-((5-fluoro-2-oxoindolin-3-ylidene)methyl)benzamido)-N-(2-aminophenyl)hexanamide] | 31% | 67% | 41% | 45% | 29% | 1.73 |
| Nc1cc(F)ccc1NC(=O)CCCCCNC(=O)c1ccc(/C=C2\C(=O)Nc3ccc(F)cc32)cc1 [Example 40, 6-(4-((5-fluoro-2-oxoindolin-3-ylidene)methyl)benzamido)-N-(2-amino-4-fluorophenyl)hexanamide] | 22% | 19% | 13% | 56% | 9% | 1.5 |
| O=C(CCCCCNC(=O)c1ccc(/C=C2\C(=O)Nc3ccc(F)cc32)cc1)NO [Example 41, 6-(4-((5-fluoro-2-oxoindolin-3-ylidene)methyl)benzamido)-N-hydroxyhexanamide] | 96% | 13% | 11% | 21% | 4% | 1.6 |
| Nc1ccccc1NC(=O)CCCCCNC(=O)c1cccc(/C=C2\C(=O)Nc3ccc(F)cc32)c1 [Example 44, 6-(3-((5-fluoro-2-oxoindolin-3-ylidene)methyl)benzamido)-N-(2-aminophenyl)hexanamide] | 30% | 97% | 48% | 85% | 35% | 1.42 |
| O=C(CCCCCNC(=O)c1cccc(/C=C2\C(=O)Nc3ccc(F)cc32)c1)NO [Example 46, 6-(3-((5-fluoro-2-oxoindolin-3-ylidene)methyl)benzamido)-N-hydroxyhexanamide] | 95% | 15% | 10% | 27% | 4% | 1.16 |
| O=C(CCCCNC(=O)c1cccc(/C=C2\C(=O)Nc3ccc(F)cc32)c1)NO [Example 51, 5-(3-((5-fluoro-2-oxoindolin-3-ylidene)methyl)benzamido)-N-hydroxypentanamide] | 86% | 18% | 12% | 33% | 3% | 1.31 |
| Nc1ccccc1NC(=O)CCCCCCCNC(=O)c1cccc(/C=C2\C(=O)Nc3ccc(F)cc32)c1 [Example 54, 8-(3-((5-fluoro-2-oxoindolin-3-ylidene)methyl)benzamido)-N-(2-aminophenyl)octanamide] | 40% | 72% | 52% | 53% | 25% | 1.34 |
| Nc1cc(F)ccc1NC(=O)CCCCCCCNC(=O)c1cccc(/C=C2\C(=O)Nc3ccc(F)cc32)c1 [Example 55, 8-(3-((5-fluoro-2-oxoindolin-3-ylidene)methyl)benzamido)-N-(2-amino-4-fluorophenyl)octanamide] | 14% | 10% | 6% | 36% | 9% | 1.12 |
